# Experimental data taken from article PMC10112268, “Inhibition of Human Coronaviruses by Combinations of Host-Targeted and Direct-Acting Antivirals” (Antimicrobial Agents and Chemotherapy, 2023).
# Read-outs that look alike come from different tables or passages of the source.
# Assays:
# in vitro [1] = conditions: human
# HCoV-OC43 [2] = experiment: microbe, parasite or virus in culture; assay type: cell-based; conditions: for IC50: Betacoronavirus 1, OC43, Huh-7, read-out: IC50, virus yield, Huh-7, AV from 1 h before adsorption; for IC50 / HCoV-OC43 titers: 48 hpi, Fig. 1; for HCoV-OC43 titers: no drug 3.1 ± 0.9 × 10^6
# SARS-CoV-2 (MAD6) = experiment: Drug combination (synergy) study, virus yield in Calu3 2B4, CompuSyn; assay type: cell-based; conditions: for SARS-CoV-2 titers: no drug 3.2 ± 0.2 × 10^5; for average DRI: for the named drug over its combinations, at Fa = 0.5 to 0.95
# [3] = test system: SARS-CoV-2 isolate MAD6 (Wuhan-Hu-1 strain); experiment: Virus yield inhibition in infected Calu3 2B4 cells, plaque assay on Vero E6; assay type: cell-based; conditions: for SARS-CoV-2 isolate MAD6 titers: no drug 3.4 ± 1 × 10^5
# HCoV-OC43 [4] = assay type: cell-based; conditions: no drug 3.2 ± 0.2 × 10^6
# in vitro [5] = conditions: human, CC50 (MTT assay), Huh-7
# in vitro [6] = conditions: African green monkey
# HCoV-229E-GFP [7] = experiment: microbe, parasite or virus in culture; assay type: cell-based; conditions: for IC50: Human coronavirus 229E, Huh-7, read-out: IC50, virus yield, Huh-7, AV from 1 h before adsorption; for IC50 / HCoV-229E-GFP titers: 24 hpi, Fig. 1; for HCoV-229E-GFP titers: no drug 3 ± 0.5 × 10^6
# [8] = test system: SARS-CoV-2 isolate 39896362_AG (omicron strain); experiment: microbe, parasite or virus in culture; assay type: cell-based; conditions: for IC50: Severe acute respiratory syndrome coronavirus 2, Vero C1008, omicron strain, AV from 1 h before adsorption, read-out: IC50, virus yield; for IC50 / SARS-CoV-2 isolate 39896362_AG titers: Fig. 1; for SARS-CoV-2 isolate 39896362_AG titers: no drug 1 ± 0.1 × 10^5
# in vitro [9] = conditions: human, CC50 (MTT assay), HCT-8
# HCoV-229E-GFP [10] = assay type: cell-based; conditions: no drug 3.5 ± 0.6 × 10^6
# HCoV-229E-GFP [11] = experiment: Direct virucidal effect on virus particles; conditions: 10^5 PFU, 1 h at room temperature; LG 0 to 300 μM, VPA 0 to 300 mM
# HCoV-229E-GFP [12] = experiment: Time of addition assay; assay type: cell-based; conditions: for IC50: Human coronavirus 229E, 24 hpi
# [13] = test system: SARS-CoV-2 isolate MAD6 (Wuhan-Hu-1 strain); experiment: Time of addition assay; assay type: cell-based; conditions: for IC50: 24 hpi, read-out: IC50, SARS-CoV-2 production
# SARS-CoV-2 = experiment: Direct virucidal effect on virus particles; conditions: 10^5 PFU, 1 h at room temperature; LG 0 to 300 μM, VPA 0 to 300 mM
# TGEV = experiment: Antiviral effect against TGEV in WSL or ST cells, plaque assay on ST; assay type: cell-based, swine coronavirus TGEV; conditions: LG in WSL cells, VPA in ST cells
# Method: Figure S2. […] The inhibitory effect […]
# of LG or VPA was assayed on triplicate cultures of TGEV-infected WSL (wild swine macrophage cell line) or ST (swine testis) cells, respectively. After 1 h-pre-incubation with AVs, triplicate cultures were infected with the corresponding virus, at a MOI of 2 PFU/cell, in a reduced volume of medium containing the AV, for 2h, virus inoculum removed and cells washed twice with medium, before the addition of drug-containing fresh medium (supplemented with 2% FBS). Cultures were then incubated for 24 h at 37 °C; total virus (intracellular and extracellular) production was evaluated by plaque assay on triplicate cultures of ST cells. Left y-axis represents infectious virus progeny at 24 hpi and right y-axis, cell viability determined by MTT assay of each corresponding cell line. IC50 values and SI values […]
# [TGEV titers (PFU/ml): 1.1±0.1 x 108 in the absence of the drugs, […]
# (1 picture or pasted object on this page, not shown here)
# [14] = test system: HCoV-229E, HCoV-OC43, and SARS-CoV-2; experiment: Antiviral assays, summary over all tested HCoVs; assay type: cell-based, human coronaviruses
# HCoV-OC43 [15] = experiment: Direct virucidal effect on virus particles; conditions: 10^5 PFU, 1 h at room temperature; LG 0 to 300 μM, VPA 0 to 300 mM
# HCoV-OC43 [16] = experiment: Time of addition assay; assay type: cell-based; conditions: for IC50: 48 hpi
structure (smiles),measurement,setting,value
"CCC(CC)COC(=O)[C@H](C)N[P@](=O)(OC[C@H]1O[C@@](C#N)(c2ccc3c(N)ncnn23)[C@H](O)[C@@H]1O)Oc1ccccc1 [RDV, remdesivir]",CC50,in vitro [1],109 µM
same,IC50,HCoV-OC43 [2],4.6e-05 mM
same,selectivity index (SI=CC50/IC50),"HCoV-OC43 [2]; HCoV-OC43, Huh-7",435
same,HCoV-OC43 titers,HCoV-OC43 [2]; at RDV 500 nM,6 ± 0.1 × 10^2 PFU/mL
same,SARS-CoV-2 titers,SARS-CoV-2 (MAD6); at 8 μM RDV,1.7 ± 0.2 × 10^3 PFU/mL
same,average DRI,SARS-CoV-2 (MAD6),4.31
same,selectivity index (SI=CC50/IC50),"[3]; SARS-CoV-2 Wuhan-Hu-1, Calu3 2B4",102
same,IC50,"[3]; Severe acute respiratory syndrome coronavirus 2, Calu-3 2B4, Calu3 2B4, Wuhan-Hu-1 strain, AV from 1 h before adsorption, 24 hpi, Fig. 1, read-out: IC50, virus yield",1070 nM
same,SARS-CoV-2 isolate MAD6 titers,"[3]; at RDV 20 μM, 24 hpi, Fig. 1",6 ± 0.3 × 10^2 PFU/mL
same,HCoV-OC43 titers,HCoV-OC43 [4]; at 320 nM RDV,1.6 ± 0.2 × 10^4 PFU/mL
same,CC50,in vitro [5]; 24 h cell incubation with AV,0.025 mM
same,CC50,in vitro [5]; 48 h cell incubation with AV,0.02 mM
same,CC50,in vitro [6],85 µM
same,selectivity index (SI=CC50/IC50),HCoV-229E-GFP [7],1732
same,IC50,HCoV-229E-GFP [7],1.44e-05 ± 4.1e-06 mM
same,HCoV-229E-GFP titers,HCoV-229E-GFP [7]; at RDV 500 nM,6 ± 0.1 × 10^2 PFU/mL
same,selectivity index (SI=CC50/IC50),"[8]; SARS-CoV-2 omicron, Vero E6",52
same,IC50,[8]; Vero E6,0.00163 ± 0.0002 mM
same,SARS-CoV-2 isolate 39896362_AG titers,[8]; at RDV 32 μM,5 ± 0.01 × 10^1 PFU/mL
same,CC50,in vitro [9]; 24 h cell incubation with AV,0.043 mM
same,CC50,in vitro [9]; 48 h cell incubation with AV,0.038 mM
same,HCoV-229E-GFP titers,HCoV-229E-GFP [10]; at 160 nM RDV,4 ± 0.2 × 10^2 PFU/mL
"CCCC(CCC)C(=O)O [VPA, valproic acid]",direct virucidal effect (change in virus titers),HCoV-229E-GFP [11],No decrease in virus titers
same,IC50,HCoV-OC43 [2],9.33 ± 2.1 mM
same,HCoV-OC43 titers,HCoV-OC43 [2]; at VPA 40 mM,1.2 ± 0.1 × 10^2 PFU/mL
same,IC50,"HCoV-229E-GFP [12]; read-out: IC50, HCoV-229E-GFP production, AV added 0 hpi",9.64 mM
same,IC50,"HCoV-229E-GFP [12]; read-out: IC50, HCoV-229E-GFP production, AV added 2 hpi",9.49 mM
same,IC50,"HCoV-229E-GFP [12]; read-out: IC50, HCoV-229E-GFP production, AV added −3 hpi (1 h before adsorption)",9.48 mM
same,HCoV-229E-GFP average titers,"HCoV-229E-GFP [12]; at 40 mM VPA, average of addition times, no drug 4 ± 0.6 × 10^6",6 ± 2 × 10^2 PFU/mL
same,IC50,"[13]; Severe acute respiratory syndrome coronavirus 2, AV added 0 hpi",5.02 mM
same,IC50,"[13]; Severe acute respiratory syndrome coronavirus 2, AV added 2 hpi",5.04 mM
same,IC50,"[13]; Severe acute respiratory syndrome coronavirus 2, AV added −2 hpi (1 h before adsorption)",4.99 mM
same,SARS-CoV-2 average titers,"[13]; at 100 mM VPA, average of addition times, no drug 3.4 ± 0.2 × 10^5",5 ± 0.01 × 10^1 PFU/mL
same,SARS-CoV-2 titers,SARS-CoV-2 (MAD6); at 16 mM VPA,4 ± 0.1 × 10^4 PFU/mL
same,average DRI,SARS-CoV-2 (MAD6),5.19
same,SARS-CoV-2 isolate MAD6 titers,"[3]; at VPA 100 mM, 24 hpi, Fig. 1",5 ± 0.01 × 10^1 PFU/mL
same,direct virucidal effect (change in virus titers),SARS-CoV-2,No decrease in virus titers
same,inhibition of TGEV multiplication,TGEV,inhibited the multiplication
same,HCoV-OC43 titers,HCoV-OC43 [4]; at 32 mM VPA,5 ± 0.01 × 10^1 PFU/mL
same,IC50,"[14]; average over all tested HCoVs, read-out: average IC50 value",7.2 mM
same,IC50,"[14]; range over tested HCoVs, read-out: IC50 values, range over HCoVs",5 to 9 mM
same,direct virucidal effect (change in virus titers),HCoV-OC43 [15],No decrease in virus titers
same,CC50,in vitro [5]; 24 h cell incubation with AV,70 mM
same,CC50,in vitro [5]; 48 h cell incubation with AV,66 mM
same,IC50,HCoV-229E-GFP [7],9.48 ± 1.1 mM
same,HCoV-229E-GFP titers,HCoV-229E-GFP [7]; at VPA 40 mM,2.5 ± 0.3 × 10^2 PFU/mL
same,IC50,[8]; Vero E6,5.15 ± 0.3 mM
same,SARS-CoV-2 isolate 39896362_AG titers,[8]; at VPA 128 mM,1 ± 0.1 × 10^2 PFU/mL
same,CC50,in vitro [9]; 24 h cell incubation with AV,95.7 mM
same,CC50,in vitro [9]; 48 h cell incubation with AV,76.2 mM
same,IC50,"HCoV-OC43 [16]; Betacoronavirus 1, OC43, read-out: IC50, HCoV-OC43 production, AV added 0 hpi",9.69 mM
same,IC50,"HCoV-OC43 [16]; Betacoronavirus 1, OC43, read-out: IC50, HCoV-OC43 production, AV added 2 hpi",9.49 mM
same,IC50,"HCoV-OC43 [16]; Betacoronavirus 1, OC43, read-out: IC50, HCoV-OC43 production, AV added −3 hpi (1 h before adsorption)",9.87 mM
same,HCoV-OC43 average titers,"HCoV-OC43 [16]; at 40 mM VPA, average of addition times, no drug 3.5 ± 0.5 × 10^6",5 ± 0.01 × 10^1 PFU/mL
same,HCoV-229E-GFP titers,HCoV-229E-GFP [10]; at 32 mM VPA,5 ± 0.3 × 10^2 PFU/mL
